Consider 19 compounds from patent US20240343704A1, “HALO-SUBSTITUTED AMINO PYRIDINE COMPOUNDS AS INHIBITORS OF THE HAEMATOPOIETIC PROGENITOR KINASE 1 (HPK1)” (priority 2021, published 2024).

Some results are limits rather than exact numbers.

The target in test [1] is T1, Recombinant (1-346) HPK1 (h) (Homo sapiens, UniProt Q92918).
T1 construct: Recombinant (1-346) HPK1 (h) is incubated with 8 mM MOPS pH 7.0
T1 sequence (Q92918 1-346): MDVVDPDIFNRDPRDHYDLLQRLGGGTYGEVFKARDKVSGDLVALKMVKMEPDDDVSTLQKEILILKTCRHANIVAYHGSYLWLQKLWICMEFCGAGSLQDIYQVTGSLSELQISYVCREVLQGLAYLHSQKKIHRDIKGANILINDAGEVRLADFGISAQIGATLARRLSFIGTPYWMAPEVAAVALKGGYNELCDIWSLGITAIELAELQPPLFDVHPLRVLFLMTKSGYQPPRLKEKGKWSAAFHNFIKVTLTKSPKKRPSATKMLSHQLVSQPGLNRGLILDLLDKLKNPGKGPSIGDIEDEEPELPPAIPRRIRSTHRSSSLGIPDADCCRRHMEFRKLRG
The test is described as follows: HPK1 Human STE Kinase Enzymatic Radiometric Assay. It is filed as biochemical. The settings on record: read-out: HPK1 IC50 nM Range*. The procedure: A stock solution of 10 mM of test compound is prepared in DMSO. The compound plate was prepared by 3-fold and 9-point serial dilutions. […] The reaction is initiated by The addition of the Mg/ATP mix. After incubation for 40 minutes at RT, the reaction is stopped by the addition of phosphoric acid to a concentration of 0.5%.

The target of test [2] is Lck (h) (Homo sapiens, UniProt P06239). Nature of the test: Lck Human  Kinase Enzymatic Radiometric Assay. It is filed as biochemical. The following applies: read-out: Lck IC50 nM Range*. In short, it runs like this: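 Substrate 33P-incorporation measured by scintillation counting after spotting on P30 filtermat and phosphoric acid washes. Human Lck reacted 40 min at RT in 50 mM Tris pH 7.5 with 10 mM MgAcetate, [gamma-33P]-ATP, 250 uM Cdc2 peptide, 0.1 mM EGTA and 0.1 mM Na3VO4.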

What is called IC50 is the concentration that inhibits the measured activity by half.

Lck (h), sequence (P06239 whole entry): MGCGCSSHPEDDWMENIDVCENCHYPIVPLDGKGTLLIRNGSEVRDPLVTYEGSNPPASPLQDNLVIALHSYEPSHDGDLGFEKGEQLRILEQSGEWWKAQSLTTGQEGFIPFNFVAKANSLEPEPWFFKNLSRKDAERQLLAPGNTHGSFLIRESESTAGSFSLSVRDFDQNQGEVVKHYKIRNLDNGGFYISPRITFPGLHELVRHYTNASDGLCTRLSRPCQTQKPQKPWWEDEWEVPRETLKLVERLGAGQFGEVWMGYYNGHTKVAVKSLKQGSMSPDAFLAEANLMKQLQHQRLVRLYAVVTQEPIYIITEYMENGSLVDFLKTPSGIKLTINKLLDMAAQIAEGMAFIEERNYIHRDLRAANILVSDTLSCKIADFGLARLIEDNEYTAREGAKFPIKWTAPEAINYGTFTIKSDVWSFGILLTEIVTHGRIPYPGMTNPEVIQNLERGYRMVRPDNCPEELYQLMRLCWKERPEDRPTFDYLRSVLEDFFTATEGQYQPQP

On to `Cc1nc2cc(-c3cc(-c4ccc(N5CCN(CCC6CC6)CC5)cc4)c(F)nc3N)cc(F)c2c(=O)[nH]1` [I-417, 7-(2-amino-5-(4-(4-(2-cyclopropylethyl)piperazin-1-yl)phenyl)-6-fluoropyridin-3-yl)-5-fluoro-2-methylquinazolin-4(3H)-one], for which the IC50 in test [1] is 0.1 to 10 nM; in test [2], above 1000 nM.
For the compound `Cc1c[nH]c(=O)c2ccc(-c3cc(-c4ccc(C5CCOCC5)c(CN(C)C)c4)c(F)nc3N)cc12` [I-426, 6-(2-amino-5-(3-((dimethylamino)methyl)-4-(tetrahydro-2H-pyran-4-yl)phenyl)-6-fluoropyridin-3-yl)-4-methylisoquinolin-1(2H)-one], the 50% inhibitory concentration (IC50) in test [1] was 0.1 to 10 nM; in test [2], above 1000 nM.
As to `CN(C)Cc1nc(-c2cc(-c3cc4c(cc3F)C(=O)NCC4)c(N)nc2F)ccc1N1CCOCC1` [I-427, 6-(6′-amino-6-((dimethylamino)methyl)-2′-fluoro-5-morpholino-[2,3-bipyridin]-5′-yl)-7-fluoro-3,4-dihydroisaoquinolin-1(2H)-one], the IC50 in test [1] is 0.1 to 10 nM; in test [2], above 1000 nM.
As for `CN(C)Cc1cc(-c2cc(-c3cc4c(cc3F)C(=O)NCC4)c(N)nc2F)ccc1C1CCOCC1` [I-429, 6-(2-amino-5-(3-((dimethylamino)methyl)-4-(tetrahydro-2H-pyran-4-yl)phenyl)-6-fluoropyridin-3-yl)-7-fluoro-3,4-dihydroisoquinolin-1(2H)-one], the IC50 in test [1] is 0.1 to 10 nM; in test [2], above 1000 nM.
`Cc1cc(-c2cc(-c3ccc4c(c3)CCNC4=O)c(N)nc2F)cc2c1CCNC2` [I-431, 6-(2-amino-6-fluoro-5-(5-methyl-1,2,3,4-tetrahydroisoquinolin-7-yl)pyridin-3-yl)-3,4-dihydroisoquinolin-1(2H)-one]: the results for the concentration for half-maximal inhibition (IC50) in test [1] and in test [2] were 0.1 to 10 nM and above 1000 nM, respectively.
As to `CN(C)Cc1cc(-c2cc(-c3ccc4c(c3)CCNC4=O)c(N)nc2F)ccc1N1CCOCC1` [I-432, 6-(2-amino-5-(3-((dimethylamino)methyl)-4-morpholinophenyl)-6-fluoropyridin-3-yl)-3,4-dihydroisoquinolin-1(2H)-one], the values for the concentration for half-maximal inhibition (IC50) in test [1] and in test [2] were 0.1 to 10 nM and above 1000 nM, respectively.
Take `Cc1cc(-c2cc(-c3ccc4c(c3)CCNC4=O)c(N)nc2F)cc2c1CCN(C)C2` [I-434, 6-(2-amino-5-(2,5-dimethyl-1,2,3,4-tetrahydroisoquinolin-7-yl)-6-fluoropyridin-3-yl)-3,4-dihydroisoquinolin-1(2H)-one]: the 50% inhibitory concentration (IC50) is 0.1 to 10 nM in test [1] and above 1000 nM in test [2].
Regarding `CC(C)N1CCN(c2ccc(-c3cc(-c4ccc5c(=O)[nH]c(C(F)(F)F)nc5c4)c(N)nc3F)cc2)CC1` [I-435, 7-(2-amino-6-fluoro-5-(4-(4-isopropylpiperazin-1-yl)phenyl)pyridin-3-yl)-2-(trifluoromethyl)quinazolin-4(3H)-one], the half-inhibitory concentration (IC50) in test [1] was 101 to 1000 nM; in test [2] it was above 1000 nM.
As for `CN(C)Cc1cc(-c2cc(-c3cc(F)c4c(c3)CCNC4=O)c(N)nc2F)ccc1C1CCOCC1` [I-436, 6-(2-amino-5-(3-((dimethylamino)methyl)-4-(tetrahydro-2H-pyran-4-yl)phenyl)-6-fluoropyridin-3-yl)-8-fluoro-3,4-dihydroisoquinolin-1(2H)-one], the IC50 in test [1] is 0.1 to 10 nM; in test [2] it was above 1000 nM.
For the compound `Cc1nc2cc(-c3cc(-c4ccc(C5CCOCC5)c(CN(C)C)c4)c(F)nc3N)ccc2c(=O)[nH]1` [I-437, 7-(2-amino-5-(3-((dimethylamino)methyl)-4-(tetrahydro-2H-pyran-4-yl)phenyl)-6-fluoropyridin-3-yl)-2-methylquinazolin-4(3H)-one], the results for the half-maximal inhibitory concentration (IC50) in test [1] and in test [2] were 11 to 100 nM and above 1000 nM, respectively.
As to `Cc1nc2cc(-c3cc(-c4ccc(N5CCN(C(C)C)CC5)cc4)c(F)nc3N)c(F)cc2c(=O)[nH]1` [I-439, 7-(2-amino-6-fluoro-5-(4-(4-isopropylpiperazin-1-yl)phenyl)pyridin-3-yl)-6-fluoro-2-methylquinazolin-4(3H)-one], the IC50 in test [1] was 11 to 100 nM; in test [2], above 1000 nM.
As for `Nc1nc(F)c(-c2ccc(N3CCN(CCCC(F)F)CC3)cc2)cc1-c1cc(F)c2c(c1)CCNC2=O` [I-440, 6-(2-amino-5-(4-(4-(4,4-difluorobutyl)piperazin-1-yl)phenyl)-6-fluoropyridin-3-yl)-8-fluoro-3,4-dihydroisoquinolin-1(2H)-one], the values for the half-inhibitory concentration (IC50) in test [1] and in test [2] were 0.1 to 10 nM and above 1000 nM, respectively.
Turning to `CN(C)Cc1cc(-c2cc(-c3ccc4c(c3)CCNC4=O)c(N)nc2F)ccc1N1CCN(CCCC(F)F)CC1` [I-445, 6-(2-amino-5-(4-(4-(4,4-difluorobutyl)piperazin-1-yl)-3-((dimethylamino)methyl)phenyl)-6-fluoropyridin-3-yl)-3,4-dihydroisoquinolin-1(2H)-one], the half-inhibitory concentration (IC50) in test [1] is 0.1 to 10 nM; in test [2], above 1000 nM.
Consider `Cc1cc(-c2cc(-c3ccc4c(c3)CCNC4=O)c(N)nc2F)cc2c1CCN(CCCC(F)F)C2` [I-446, 6-(2-amino-5-(2-(4,4-difluorobutyl)-5-methyl-1,2,3,4-tetrahydroisoquinolin-7-yl)-6-fluoropyridin-3-yl)-3,4-dihydroisoquinolin-1(2H)-one], for which the figures for the IC50 in test [1] and in test [2] were 0.1 to 10 nM and above 1000 nM, respectively.
On to `Nc1nc(F)c(-c2ccc(N3CCC4(CC3)CN(C3CCC3)C4)cc2)cc1-c1cc2c(cc1F)C(=O)NCC2` [I-449, 6-(2-amino-5-(4-(2-cyclobutyl-2,7-diazaspiro[3.5]nonan-7-yl)phenyl)-6-fluoropyridin-3-yl)-7-fluoro-3,4-dihydroisoquinolin-1(2H)-one], for which the IC50 was 0.1 to 10 nM in test [1] and above 1000 nM in test [2].
As to `CN(C)Cc1cc(-c2cc(-c3ccc4c(c3)CCNC4=O)c(N)nc2F)ccc1N1CCN(C2CCCC2)CC1` [I-451, 6-(2-amino-5-(4-(4-cyclopentylpiperazin-1-yl)-3-((dimethylamino)methyl)phenyl)-6-fluoropyridin-3-yl)-3,4-dihydroisoquinolin-1(2H)-one], the IC50 in test [1] is 0.1 to 10 nM; in test [2], above 1000 nM.
For the compound `Cc1cc2cc(-c3cc(-c4ccc(N5CCN(CC6CC6)CC5)cc4)c(F)nc3N)cc(F)c2c(=O)[nH]1` [I-454, 6-(2-amino-5-(4-(4-(cyclopropylmethyl)piperazin-1-yl)phenyl)-6-fluoropyridin-3-yl)-8-fluoro-3-methylisoquinolin-1(2H)-one], the 50% inhibitory concentration (IC50) was 0.1 to 10 nM in test [1] and above 1000 nM in test [2].
On to `Nc1nc(F)c(-c2ccc(N3CCN(CC4CC4)CC3)cc2)cc1-c1ccc2c(=O)[nH]cc(F)c2c1` [I-455, 6-(2-amino-5-(4-(4-(cyclopropylmethyl)piperazin-1-yl)phenyl)-6-fluoropyridin-3-yl)-4-fluoroisoquinolin-1(2H)-one], for which the IC50 was 0.1 to 10 nM in test [1] and above 1000 nM in test [2].
Regarding `Cc1c[nH]c(=O)c2ccc(-c3cc(-c4ccc(N5CCN(CC6CC6)CC5)cc4)c(F)nc3N)cc12` [I-457, 6-(2-amino-5-(4-(4-(cyclopropylmethyl)piperazin-1-yl)phenyl)-6-fluoropyridin-3-yl)-4-methylisoquinolin-1(2H)-one], the IC50 in test [1] was 0.1 to 10 nM; in test [2], above 1000 nM.
